In patent US20180200257A1, “METHODS FOR THE TREATMENT OF INFLAMMATORY DISORDERS” (Galapagos NV, priority 2015, published 2018):

Test system: subjects with moderately to severely active RA who have an inadequate response to methotrexate (MTX)
Test: Study 1 (add-on to MTX) - Aspartate Aminotransferase (AST) levels
Assay type: in vivo, human
Description: Double-blind, placebo-controlled add on study in subjects with moderately to severely active RA who have an inadequate response to methotrexate (MTX) (oral or parenteral).
595 subjects randomized to one of 6 dose regimens of Compound 1 (dosed as [Compound 1:HCl:3H2O]) (3 dose levels administered either once or twice daily) or placebo on top of each subject's stable dose of MTX.
Compound 1 (dosed as [Compound 1:HCl:3H2O]) is dosed for twelve weeks once daily (q.d.) (50 mg, 100 mg or 200 mg) or twice daily (b.i.d.) (25 mg, 50 mg or 100 mg); or placebo.
At Week 12, the subjects on placebo who have not achieved 20% improvement in swollen joint count (SJC66) and tender joint count (TJC68) are re-randomized automatically to receive Compound 1 (dosed as a [Compound 1:HCl:3H2O]) either at 100 mg q.d. or 50 mg b.i.d. doses in a blinded fashion; subjects on 50 mg q.d. who have not achieved 20% improvement in SJC66 and TJC68 will be assigned to 100 mg q.d. and subjects on 25 mg b.i.d. that have not achieved a 20% improvement in SJC66 and TJC68 will be assigned to 50 mg b.i.d. Subjects who switch treatment at week 12 are handled as if they discontinued at week 12 for the purpose of statistical analysis, whereas subjects in the other groups will maintain their randomized treatment until Week 24.
AST levels determination is available at Quest Diagnostics, Clinical Trials, Quest House, 125-135 Staines Road, Hounslow, Middlesex, TW3 3JB, United Kingdom under Catalogue n#84450. For Study 3, the data are obtained at BARC Europe, 3B,Industrie Park, Zwijnaarde, B-9052 Ghent, Belgium.
AST catalyzes the transamination of aspartate and 2-oxoglutarate, forming L-glutamate and oxalacetate. The oxalacetate is reduced to L-malate by malate dehydrogenase, whilst NADH is converted to NAD+, measured spectrophotometrically. Guidelines for the AST value have been issued by the association for Clinical Biochemistry and Laboratory Medicine, 130-132 Tooley Street LONDON SE1 2TU, united Kingdom, wherein the AST value should be below 34 U/l in Female and below 45 U/L in male. As disclosed in the respective study protocols for Study 1 or 2, at week 12, depending on the outcome of their treatment, the subjects may be continued in their initial treatment course, or reassigned to another treatment group in a randomized blinded fashion until week 24. Therefore, the number of subjects (N) for the period of either 12 weeks, or 24 weeks is provided to reflect this redistribution at week 12.

[1] = 12 weeks results, 50 mg q.d., week 1
[2] = 12 weeks results, 50 mg q.d., week 2
[3] = 12 weeks results, 50 mg q.d., week 4
[4] = 12 weeks results, 50 mg q.d., week 8
[5] = 12 weeks results, 50 mg q.d., week 12
[6] = 12 weeks results, 100 mg q.d., week 1
[7] = 12 weeks results, 100 mg q.d., week 2
[8] = 12 weeks results, 100 mg q.d., week 4
[9] = 12 weeks results, 100 mg q.d., week 8
[10] = 12 weeks results, 100 mg q.d., week 12
[11] = 12 weeks results, 200 mg q.d., week 1
[12] = 12 weeks results, 200 mg q.d., week 2
[13] = 12 weeks results, 200 mg q.d., week 4
[14] = 12 weeks results, 200 mg q.d., week 8
[15] = 12 weeks results, 200 mg q.d., week 12
[16] = 12 weeks results, 2 × 25 mg b.i.d., week 1
[17] = 12 weeks results, 2 × 25 mg b.i.d., week 2
[18] = 12 weeks results, 2 × 25 mg b.i.d., week 4
[19] = 12 weeks results, 2 × 25 mg b.i.d., week 8
[20] = 12 weeks results, 2 × 25 mg b.i.d., week 12
[21] = 12 weeks results, 2 × 50 mg b.i.d., week 1
[22] = 12 weeks results, 2 × 50 mg b.i.d., week 2
[23] = 12 weeks results, 2 × 50 mg b.i.d., week 4
[24] = 12 weeks results, 2 × 50 mg b.i.d., week 8
[25] = 12 weeks results, 2 × 50 mg b.i.d., week 12
[26] = 12 weeks results, 2 × 100 mg b.i.d., week 1
[27] = 12 weeks results, 2 × 100 mg b.i.d., week 2
[28] = 12 weeks results, 2 × 100 mg b.i.d., week 4
[29] = 12 weeks results, 2 × 100 mg b.i.d., week 8
[30] = 12 weeks results, 2 × 100 mg b.i.d., week 12
[31] = 24 weeks results, continued 25 mg b.i.d., week 1
[32] = 24 weeks results, continued 25 mg b.i.d., week 2
[33] = 24 weeks results, continued 25 mg b.i.d., week 4
[34] = 24 weeks results, continued 25 mg b.i.d., week 8
[35] = 24 weeks results, continued 25 mg b.i.d., week 12
[36] = 24 weeks results, continued 25 mg b.i.d., week 16
[37] = 24 weeks results, continued 25 mg b.i.d., week 20
[38] = 24 weeks results, continued 25 mg b.i.d., week 24
[39] = 24 weeks results, continued 50 mg b.i.d., week 1
[40] = 24 weeks results, continued 50 mg b.i.d., week 2
[41] = 24 weeks results, continued 50 mg b.i.d., week 4
[42] = 24 weeks results, continued 50 mg b.i.d., week 8
[43] = 24 weeks results, continued 50 mg b.i.d., week 12
[44] = 24 weeks results, continued 50 mg b.i.d., week 16
[45] = 24 weeks results, continued 50 mg b.i.d., week 20
[46] = 24 weeks results, continued 50 mg b.i.d., week 24
[47] = 24 weeks results, continued 50 mg q.d., week 1
[48] = 24 weeks results, continued 50 mg q.d., week 2
[49] = 24 weeks results, continued 50 mg q.d., week 4
[50] = 24 weeks results, continued 50 mg q.d., week 8

SMILES: O=C(Nc1nc2cccc(-c3ccc(CN4CCS(=O)(=O)CC4)cc3)n2n1)C1CC1 [Compound 1, cyclopropanecarboxylic acid {5-[4-(1,1-dioxo-thiomorpholin-4-ylmethyl)-phenyl]-[1,2,4]triazolo[1,5-a]pyridin-2-yl}-amide]
- Study 1 - AST Mean CFB [1]: 1 IU/L
- Study 1 - AST Mean percentage CFB [1]: 7%
- Study 1 - AST Mean CFB [2]: 0 IU/L
- Study 1 - AST Mean percentage CFB [2]: 5%
- Study 1 - AST Mean CFB [3]: 0 IU/L
- Study 1 - AST Mean percentage CFB [3]: 5%
- Study 1 - AST Mean CFB [4]: 0 IU/L
- Study 1 - AST Mean percentage CFB [4]: 7%
- Study 1 - AST Mean CFB [5]: 1 IU/L
- Study 1 - AST Mean percentage CFB [5]: 10%
- Study 1 - AST Mean CFB [6]: 3 IU/L
- Study 1 - AST Mean percentage CFB [6]: 14%
- Study 1 - AST Mean CFB [7]: 1 IU/L
- Study 1 - AST Mean percentage CFB [7]: 9%
- Study 1 - AST Mean CFB [8]: 2 IU/L
- Study 1 - AST Mean percentage CFB [8]: 11%
- Study 1 - AST Mean CFB [9]: 3 IU/L
- Study 1 - AST Mean percentage CFB [9]: 17%
- Study 1 - AST Mean CFB [10]: 2 IU/L
- Study 1 - AST Mean percentage CFB [10]: 16%
- Study 1 - AST Mean CFB [11]: 3 IU/L
- Study 1 - AST Mean percentage CFB [11]: 16%
- Study 1 - AST Mean CFB [12]: 2 IU/L
- Study 1 - AST Mean percentage CFB [12]: 13%
- Study 1 - AST Mean CFB [13]: 3 IU/L
- Study 1 - AST Mean percentage CFB [13]: 19%
- Study 1 - AST Mean CFB [14]: 5 IU/L
- Study 1 - AST Mean percentage CFB [14]: 27%
- Study 1 - AST Mean CFB [15]: 5 IU/L
- Study 1 - AST Mean percentage CFB [15]: 29%
- Study 1 - AST Mean CFB [16]: 0 IU/L
- Study 1 - AST Mean percentage CFB [16]: 3%
- Study 1 - AST Mean CFB [17]: 0 IU/L
- Study 1 - AST Mean percentage CFB [17]: 6%
- Study 1 - AST Mean CFB [18]: 0 IU/L
- Study 1 - AST Mean percentage CFB [18]: 6%
- Study 1 - AST Mean CFB [19]: 0 IU/L
- Study 1 - AST Mean percentage CFB [19]: 10%
- Study 1 - AST Mean CFB [20]: 2 IU/L
- Study 1 - AST Mean percentage CFB [20]: 14%
- Study 1 - AST Mean CFB [21]: 1 IU/L
- Study 1 - AST Mean percentage CFB [21]: 6%
- Study 1 - AST Mean CFB [22]: 0 IU/L
- Study 1 - AST Mean percentage CFB [22]: 6%
- Study 1 - AST Mean CFB [23]: 2 IU/L
- Study 1 - AST Mean percentage CFB [23]: 14%
- Study 1 - AST Mean CFB [24]: 2 IU/L
- Study 1 - AST Mean percentage CFB [24]: 14%
- Study 1 - AST Mean CFB [25]: 2 IU/L
- Study 1 - AST Mean percentage CFB [25]: 17%
- Study 1 - AST Mean CFB [26]: 1 IU/L
- Study 1 - AST Mean percentage CFB [26]: 10%
- Study 1 - AST Mean CFB [27]: 2 IU/L
- Study 1 - AST Mean percentage CFB [27]: 14%
- Study 1 - AST Mean CFB [28]: 3 IU/L
- Study 1 - AST Mean percentage CFB [28]: 19%
- Study 1 - AST Mean CFB [29]: 2 IU/L
- Study 1 - AST Mean percentage CFB [29]: 17%
- Study 1 - AST Mean CFB [30]: 3 IU/L
- Study 1 - AST Mean percentage CFB [30]: 20%
- Study 1 - AST Mean CFB [31]: 0.7 IU/L
- Study 1 - AST Mean percentage CFB [31]: 6.7%
- Study 1 - AST Mean CFB [32]: 0.7 IU/L
- Study 1 - AST Mean percentage CFB [32]: 7.1%
- Study 1 - AST Mean CFB [33]: 1.0 IU/L
- Study 1 - AST Mean percentage CFB [33]: 8.6%
- Study 1 - AST Mean CFB [34]: 1.6 IU/L
- Study 1 - AST Mean percentage CFB [34]: 14.0%
- Study 1 - AST Mean CFB [35]: 2.2 IU/L
- Study 1 - AST Mean percentage CFB [35]: 16.4%
- Study 1 - AST Mean CFB [36]: 1.4 IU/L
- Study 1 - AST Mean percentage CFB [36]: 12.6%
- Study 1 - AST Mean CFB [37]: 1.1 IU/L
- Study 1 - AST Mean percentage CFB [37]: 10.8%
- Study 1 - AST Mean CFB [38]: 1.7 IU/L
- Study 1 - AST Mean percentage CFB [38]: 14.0%
- Study 1 - AST Mean CFB [39]: 0.5 IU/L
- Study 1 - AST Mean percentage CFB [39]: 5.7%
- Study 1 - AST Mean CFB [40]: 0.4 IU/L
- Study 1 - AST Mean percentage CFB [40]: 5.5%
- Study 1 - AST Mean CFB [41]: 1.8 IU/L
- Study 1 - AST Mean percentage CFB [41]: 14.4%
- Study 1 - AST Mean CFB [42]: 1.7 IU/L
- Study 1 - AST Mean percentage CFB [42]: 14.0%
- Study 1 - AST Mean CFB [43]: 2.4 IU/L
- Study 1 - AST Mean percentage CFB [43]: 17.1%
- Study 1 - AST Mean CFB [44]: 1.9 IU/L
- Study 1 - AST Mean percentage CFB [44]: 13.7%
- Study 1 - AST Mean CFB [45]: 3.4 IU/L
- Study 1 - AST Mean percentage CFB [45]: 20.7%
- Study 1 - AST Mean CFB [46]: 1.5 IU/L
- Study 1 - AST Mean percentage CFB [46]: 11.1%
- Study 1 - AST Mean CFB [47]: 0.8 IU/L
- Study 1 - AST Mean percentage CFB [47]: 7.5%
- Study 1 - AST Mean CFB [48]: −0.2 IU/L
- Study 1 - AST Mean percentage CFB [48]: 5.7%
- Study 1 - AST Mean CFB [49]: −0.4 IU/L
- Study 1 - AST Mean percentage CFB [49]: 5.2%
- Study 1 - AST Mean CFB [50]: 0.4 IU/L
- Study 1 - AST Mean percentage CFB [50]: 9.0%
